Source: US20210315810A1, “COMPOSITION CONTAINING A MUCOLYTIC AGENT FOR THE TREATMENT OF MUCUS HYPERSECRETION AND A DEVICE FOR THE DOSING THEREOF” (SOFAR S.P.A., priority 2018, published 2021)

Assay: Viscosity of cystic fibrosis mucus before and after incubation with Compositions 5-12 (Experimental Part II)
Design: species or system human
Conditions: mucus from patients, in vitro

SMILES: CC(=O)N[C@@H](CS)C(=O)O [N-acetylcysteine, 2R-acetamido-3-sulfanylpropanoic acid]
- Effect on viscosity of bronchial mucus (in words): effective at reducing the viscosity of bronchial mucus
